Data as given in patent publication US4452851A, “Cephem compounds” (Fujisawa Pharmaceutical Co., Ltd., priority 1981, dated 1984).
Converted amounts (≈) assume the structure as drawn.

What was measured:
Escherichia coli 31 = assay: Minimal inhibitory concentration, two-fold agar-plate dilution method; type: cell-based; settings: HI-agar, 37° C., 20 hours
Method: (§1) In vitro antibacterial activity was determined by the two-fold agar-plate dilution method as described below. One loopful of an overnight culture of each test strain in Trypticase-soy broth (10^8 viable cells per ml) was streaked on heart infusion agar (HI-agar) containing graded concentrations of representative test compound, and the minimal inhibitory concentration (MIC) was expressed in terms of μg/ml after incubation at 37° C. for 20 hours.

[1] = system: Proteus vulgaris IAM-1025; assay: as above; type: cell-based; settings: IAM1025, HI-agar, 37° C., 20 hours
Method: as §1

Proteus mirabilis 18 = assay: as above; type: cell-based; settings: HI-agar, 37° C., 20 hours
Method: as §1

Klebsiella pneumoniae 20 = assay: as above; type: cell-based; settings: HI-agar, 37° C., 20 hours
Method: as §1

[2] = system: Escherichia coli NIHJ JC-2; assay: as above; type: cell-based; settings: NIHJJC2, HI-agar, 37° C., 20 hours
Method: as §1

[3] = Urinary excretion in rats after oral administration; type: in vivo; settings: rat, 100 mg/kg, 100 mg per Kg, urine 0 to 24 hours, bioassay
Method: The concentration of antibiotic in urine samples were bioassayed with the standard buffer at pH 7.0, and the urinary excretion in 24 hours were calculated.

in vivo = settings: rat, po, 100 mg/kg
Method: Rats anesthetized with pentobarbital were fixed in supine position, and a polyethylene cannula was inserted into the bile duct. Bile samples were collected at 0 to 3, 3 to 6, and 6 to 24 hours after oral administration of 100 mg of the test drugs per kg. The antibiotic levels in the bile samples were assyed with the standard solutions prepared with M/15 phosphate buffer (pH 7.0) and the biliary excretion in 24 hours were calculated.

SMILES | MIC (Escherichia coli 31) [µg/mL] | MIC [1] [µg/mL] | MIC (Proteus mirabilis 18) [µg/mL] | MIC (Klebsiella pneumoniae 20) [µg/mL] | MIC [2] [µg/mL] | dose excreted at 24 h [3] [%] | dose excreted at 24 h (in vivo) [%]
CCSC1=C(C(=O)O)N2C(=O)C(NC(=O)/C(=N\OCC(=O)O)c3nsc(N)n3)C2SC1 (stereo not drawn) [(4), 7-[2-(5-amino-1,2,4-thiadiazol-3-yl)-2-carboxymethoxyiminoacetamido]-3-ethylthio-3-cephem-4-carboxylic acid (syn isomer)] | 0.2 (≈ 0.409 µM) | 0.78 (≈ 1.6 µM) | 0.2 (≈ 0.409 µM) | 0.39 (≈ 0.798 µM) | 1.56 (≈ 3.19 µM) |  | 
CSC1=C(C(=O)O)N2C(=O)C(NC(=O)/C(=N\OCC(=O)O)c3csc(N)n3)C2SC1 (stereo not drawn) [Compound (1), 7-[2-(2-aminothiazol-4-yl)-2-carboxymethoxyiminoacetamido]-3-methylthio-3-cephem-4-carboxylic acid (syn isomer)] | 0.2 (≈ 0.422 µM) | 0.39 (≈ 0.824 µM) | 0.05 (≈ 0.106 µM) | 0.1 (≈ 0.211 µM) | 1.56 (≈ 3.29 µM) | 51.6 | 41.1
CCSC1=C(C(=O)O)N2C(=O)C(NC(=O)/C(=N\OCC(=O)O)c3csc(N)n3)C2SC1 (stereo not drawn) [Compound (2), 7-[2-(2-aminothiazol-4-yl)-2-carboxymethoxyiminoacetamido]-3-ethylthio-3-cephem-4-carboxylic acid (syn isomer)] | 0.2 (≈ 0.41 µM) | 0.78 (≈ 1.6 µM) | 0.025 (≈ 0.0513 µM) | 0.1 (≈ 0.205 µM) | 3.13 (≈ 6.42 µM) | 19.4 | 32.2
CCSC1=C(C(=O)O)N2C(=O)C(NC(=O)/C(=N\OCC(=O)O)c3nc(N)sc3Cl)C2SC1 (stereo not drawn) [Compound (3), 7-[2-(2-amino-5-chlorothiazol-4-yl)-2-carboxymethoxyiminoacetamido]-3-ethylthio-3-cephem-4-carboxylic acid (syn isomer)] | 0.2 (≈ 0.383 µM) | 0.1 (≈ 0.192 µM) | 0.05 (≈ 0.0958 µM) | 0.2 (≈ 0.383 µM) | 1.56 (≈ 2.99 µM) |  | 
CSC1=C(C(=O)O)N2C(=O)C(NC(=O)/C(=N\OCC(=O)O)c3cscn3)C2SC1 (stereo not drawn) [Test Compound (3), 7-[2-(4-thiazolyl)-2-carboxymethoxyiminoacetamido]-3-methylthio-3-cephem-4-carboxylic acid (syn isomer)] |  |  |  |  |  | 48.6 | 25.5
